Assay results: patent US5378690A, “New renin-inhibitory oligopeptides, their preparation and their use” (Sankyo Company, Limited, priority 1986, dated 1995)

The compounds below were run against T1, human renin (Homo sapiens, UniProt P00797) (assay: Inhibition of renin activity). Details: 1×10^-6 M of the test compound, sheep angiotensinogen, pH 7.3, 10 minutes at 37° C., mean of 3 or 4 experiments.
T1 sequence (P00797 67-406): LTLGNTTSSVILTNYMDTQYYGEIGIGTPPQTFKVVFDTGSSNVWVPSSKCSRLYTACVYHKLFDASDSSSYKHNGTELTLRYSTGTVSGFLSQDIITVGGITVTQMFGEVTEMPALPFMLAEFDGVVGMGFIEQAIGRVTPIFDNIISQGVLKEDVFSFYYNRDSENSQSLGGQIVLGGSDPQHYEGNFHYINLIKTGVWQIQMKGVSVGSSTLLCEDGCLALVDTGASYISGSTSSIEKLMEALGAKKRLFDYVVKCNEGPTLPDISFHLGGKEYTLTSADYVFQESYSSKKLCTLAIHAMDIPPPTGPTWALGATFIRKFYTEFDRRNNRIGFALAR
Assay type: biochemical
Method: The ability of various compounds of the invention to inhibit the activity of renin was determined according to the following method, which follows essentially the procedure of Kokubu et al. [Hypertension, 5, 191-197 (1983)].
Specifically, each test compound was dissolved in 60% v/v aqueous ethanol. Human renin activity in the presence and absence of each compound was measured using sheep angiotensinogen. The total volume of 1 ml of assay mixture contained 0.1 mole/litre phosphate buffer (pH 7.3), human renin (equivalent to 0.5 ng angiotensin I per ml per minute), sheep angiotensinogen (equivalent to 200 ng angiotensin I) 1×10^-6 M of the test compound, 6% v/v ethanol and angiotensinase inhibitors (10 mmole/litre sodium ethylenediaminetetraacetate and 3.4 mmole/litre 8-hydroxyquinoline). The mixture was allowed to react for 10 minutes at 37° C., and then the reaction was stopped by placing the reaction tube in a boiling water bath for 5 minutes. The mixture was then centrifuged and the supernatant (0.05-0.1 ml) was used to assay remaining angiotensin I.
An identical experiment was carried out, as a control, except that the test compound was omitted. From the values obtained were calculated the % inhibition of renin activity achieved by each test compound. The results are shown in the following Table 9, in which the compounds of the invention are identified by the numbers of the Examples given hereafter in which are described their preparation. The values given are the mean of 3 or 4 experiments.

Compound	Inhibitory Activity (%)
CC1CN(C(=O)C[C@@H](Cc2cccc3ccccc23)C(=O)NC(Cc2cscn2)C(=O)N[C@@H](CC2CCCCC2)[C@@H](O)CC(=O)NCCN2CCOCC2)CC(C)O1 (mixture of isomers) [Example 8, N-{N-[(2R)-2-(1-Naphthylmethyl)-3-(2,6-dimethylmorpholinocarbocyl)propionyl]-3-(4-thiazolyl)-DL-alanyl}-cyclostatin-(2-morpholinoethyl)amide]	96.5%
CC(C)CN(CC(C)C)C(=O)C[C@H](O)[C@H](CC1CCCCC1)NC(=O)[C@H](Cc1cscn1)NC(=O)[C@H](Cc1cccc2ccccc12)NC(=O)CN1CCOCC1 [Example 106]	98.2%
O=C(C[C@H](O)[C@H](CC1CCCCC1)NC(=O)C(Cc1cscn1)NC(=O)[C@@H](CC(=O)N1CCN(c2ccccc2)CC1)Cc1cccc2ccccc12)NCCN1CCOCC1 (mixture of isomers) [Example 15, N-{N-[(2R)-2-(1-Naphthylmethyl)-3-(4-phenyl-1-piperazinylcarbonyl)propionyl]-3-(4-thiazolyl)-DL-alanyl}-cyclostatin-(2-morpholinoethyl)amide]	96.3%
CCC(C)[C@@H](CO)NC(=O)C[C@H](O)[C@H](CC1CCCCC1)NC(=O)[C@H](Cc1cscn1)NC(=O)[C@@H](CC(=O)N1CCOCC1)Cc1cccc2ccccc12 (stereo partly shown) [Example 31]	98.2%
CN(CC(=O)N[C@@H](CC1CCCCC1)C(=O)N[C@@H](Cc1cscn1)C(=O)N[C@@H](CC1CCCCC1)[C@@H](O)CC(=O)NCCN1CCOCC1)Cc1ccccc1 [Example 101, N-{N-[N-(N-Benzyl-N-methylaminoacetyl)-3-cyclohexyl-L-alanyl]-3-(4-thiazolyl)-L-alanyl}-cyclostatin-(2-morpholinoethyl)amide]	94.9%
N-{N-[N-(N-Benzyl-N-methylaminoacetyl)-3-(1-naphthyl)-L-alanyl]-L-tryptophyl}-cyclostatin-[3-(2-oxo-1-pyrrolidinyl)propyl]amide [Example 76]	97.1%
O=C(C[C@H](O)[C@H](CC1CCCCC1)NC(=O)C(Cc1cscn1)NC(=O)[C@@H](CC(=O)N1CCCCC1)Cc1cccc2ccccc12)NCCN1CCOCC1 (mixture of isomers) [Example 11, N-{N-[(2R)-2-(1-Naphthylmethyl)-3-(piperidinocarbonyl)propionyl]-3-(4-thiazolyl)-DL-alanyl}-cyclostatin-(2-morpholinoethyl)amide]	96.9%
